Measured values: patent US6737383B1, “Herbicidal oxadiazolidines” (priority 1999, dated 2004)

Tests used:
[1] = tested on: blackgrass; assay: Test B pre/postemergence blackgrass; type: in vivo, Alopecurus myosuroides
Outline: (§1)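 Herbicidal effect was estimated by eye on a ten-point control scale after plants spent twelve to sixteen days in a greenhouse following soil or foliar treatment. Foliar sprays targeted plants at one to four leaves; all doses were formulated in a non-phytotoxic solvent with surfactant.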

[2] = tested on: cocklebur; assay: Test B pre/postemergence cocklebur; type: in vivo, Xanthium strumarium
Outline: as §1

[3] = tested on: sugar beet; assay: Test B pre/postemergence sugar beet; type: in vivo, Beta vulgaris
Outline: as §1

[4] = tested on: soybean; assay: Test B pre/postemergence soybean; type: in vivo, Glycine max
Outline: as §1

[5] = tested on: rice; assay: Test B flood test rice; type: in vivo, Oryza sativa
Outline: (§2)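 Each value is a visual injury score relative to controls, with 10 meaning complete control and 0 no effect. Evaluation took place twelve to sixteen days after the 2-leaf-stage plants were treated and kept in the greenhouse.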

[6] = tested on: bedstraw; assay: Test B pre/postemergence bedstraw; type: in vivo, Galium aparine
Outline: as §1

[7] = tested on: velvetleaf; assay: Test B pre/postemergence velvetleaf; type: in vivo, Abutilon theophrasti
Outline: as §1

[8] = tested on: corn; assay: Test B pre/postemergence corn; type: in vivo, Zea mays
Outline: as §1

[9] = tested on: crabgrass; assay: Test B pre/postemergence crabgrass; type: in vivo, Digitaria sanguinalis
Outline: as §1

[10] = tested on: surinam grass; assay: Test B pre/postemergence surinam grass; type: in vivo, Brachiaria decumbens
Outline: as §1

[11] = tested on: purple nutsedge; assay: Test B pre/postemergence purple nutsedge; type: in vivo, Cyperus rotundus
Outline: as §1

[12] = tested on: duck salad; assay: Test B flood test duck salad; type: in vivo, Heteranthera limosa
Outline: as §2

[13] = tested on: wheat; assay: Test B pre/postemergence wheat; type: in vivo, Triticum aestivum
Outline: as §1

[14] = tested on: bamyardgrass; assay: Test B flood test barnyardgrass; type: in vivo, Echinochloa crus-galli
Outline: as §2

[15] = tested on: smallflower flatsedge; assay: Test B flood test smallflower flatsedge; type: in vivo, Cyperus difformis
Outline: as §2

[16] = tested on: wild oat; assay: Test B pre/postemergence wild oat; type: in vivo, Avena fatua
Outline: as §1

[17] = Postemergence, Rate 125 g/ha, scale of 0 to 10 where 0 is no effect and 10 is complete control
[18] = Preemergence, Rate 62 g/ha, scale of 0 to 10 where 0 is no effect and 10 is complete control
[19] = Preemergence, Rate 125 g/ha, 0 is no effect, 10 is complete control
[20] = Preemergence, Rate 250 g/ha, scale 0 to 10, 0 is no effect, 10 is complete control
[21] = Preemergence, Rate 500 g/ha, scale 0 to 10 (0 no effect, 10 complete control)
[22] = Rate 62 g/ha, Postemergence, scale of 0 to 10 where 0 is no effect and 10 is complete control
[23] = Rate 250 g/ha, Postemergence, scale 0 to 10, 0 is no effect, 10 is complete control
[24] = Rate 500 g/ha, Postemergence, scale 0 to 10
[25] = Rate 62 g/ha, headed Pre-emergence (flood test species), scale 0 to 10 (0 no effect, 10 complete control)
[26] = Rate 125 g/ha, Pre-emergence, flood test species, scale 0 to 10 where 0 is no effect and 10 is complete control
[27] = Rate 250 g/ha, Pre-emergence, flood-test species, scale 0 to 10, 0 is no effect, 10 is complete control
[28] = Rate 500 g/ha, headed Pre-emergence (flood test species), scale 0 to 10 (0 no effect, 10 complete control)

CCN(Cc1ccccc1)C(=O)n1oc(=O)n(C(C)C)c1=O [Compound 166]
Blackgrass plant response rating [1, 17]: 4
Blackgrass plant response rating [1, 18]: 0
Blackgrass plant response rating (0 to 10 scale) [1, 19]: 0
Blackgrass plant response rating [1, 20]: 4
Blackgrass plant response rating [1, 21]: 5
Blackgrass plant response rating [1, 22]: 0
Plant response rating, Blackgrass [1, 23]: 7
Blackgrass plant response rating [1, 24]: 8
Cocklebur plant response rating [2, 17]: 0
Cocklebur plant response rating [2, 18]: 0
Cocklebur plant response rating (0 to 10 scale) [2, 19]: 0
Cocklebur plant response rating [2, 20]: 0
Cocklebur plant response rating [2, 21]: 0
Cocklebur plant response rating [2, 22]: 0
Plant response rating, Cocklebur [2, 23]: 0
Cocklebur plant response rating [2, 24]: 0
Sugarbeets plant response rating [3, 17]: 0
Sugarbeets plant response rating [3, 18]: 0
Sugarbeets plant response rating (0 to 10 scale) [3, 19]: 0
Sugarbeets plant response rating [3, 20]: 0
Sugarbeets plant response rating [3, 21]: 0
Sugarbeets plant response rating [3, 22]: 0
Plant response rating, Sugarbeets [3, 23]: 0
Sugarbeets plant response rating [3, 24]: 0
Soybean plant response rating [4, 17]: 0
Soybean plant response rating [4, 18]: 0
Soybean plant response rating (0 to 10 scale) [4, 19]: 0
Soybean plant response rating [4, 20]: 0
Soybean plant response rating [4, 21]: 2
Soybean plant response rating [4, 22]: 0
Plant response rating, Soybean [4, 23]: 2
Soybean plant response rating [4, 24]: 3
Rice plant response rating [5, 25]: 0
Rice plant response rating [5, 26]: 0
Rice plant response rating [5, 27]: 0
Plant response rating, Rice [5, 28]: 0
Bedstraw plant response rating [6, 17]: 0
Bedstraw plant response rating [6, 18]: 0
Bedstraw plant response rating (0 to 10 scale) [6, 19]: 0
Bedstraw plant response rating [6, 20]: 0
Bedstraw plant response rating [6, 21]: 0
Bedstraw plant response rating [6, 22]: 0
Plant response rating, Bedstraw [6, 23]: 1
Bedstraw plant response rating [6, 24]: 5
Velvetleaf plant response rating [7, 18]: 0
Velvetleaf plant response rating (0 to 10 scale) [7, 19]: 0
Velvetleaf plant response rating [7, 20]: 5
Velvetleaf plant response rating [7, 21]: 6
Plant response rating, Velvetleaf [7, 23]: 0
Velvetleaf plant response rating [7, 24]: 0
Corn plant response rating [8, 17]: 0
Corn plant response rating [8, 18]: 0
Corn plant response rating (0 to 10 scale) [8, 19]: 0
Corn plant response rating [8, 20]: 0
Corn plant response rating [8, 21]: 0
Corn plant response rating [8, 22]: 0
Plant response rating, Corn [8, 23]: 0
Corn plant response rating [8, 24]: 0
Crabgrass plant response rating [9, 17]: 1
Crabgrass plant response rating [9, 18]: 4
Crabgrass plant response rating (0 to 10 scale) [9, 19]: 4
Crabgrass plant response rating [9, 20]: 7
Crabgrass plant response rating [9, 21]: 7
Crabgrass plant response rating [9, 22]: 0
Plant response rating, Crabgrass [9, 23]: 3
Crabgrass plant response rating [9, 24]: 4
B. signalgrass plant response rating [10, 17]: 0
B. signalgrass plant response rating [10, 18]: 0
B. signalgrass plant response rating (0 to 10 scale) [10, 19]: 0
B. signalgrass plant response rating [10, 20]: 0
B. signalgrass plant response rating [10, 21]: 4
B. signalgrass plant response rating [10, 22]: 0
Plant response rating, B. signalgrass [10, 23]: 0
B. signalgrass plant response rating ([10]; Rate 500 g/ha, Postemergence, scale 0 to 10, 0 no effect, 10 complete control): 0
Nutsedge plant response rating [11, 17]: 0
Nutsedge plant response rating (0 to 10 scale) [11, 19]: 0
Nutsedge plant response rating [11, 20]: 0
Nutsedge plant response rating [11, 21]: 0
Nutsedge plant response rating [11, 22]: 0
Plant response rating, Nutsedge [11, 23]: 0
Nutsedge plant response rating [11, 24]: 0
Ducksalad plant response rating [12, 25]: 0
Ducksalad plant response rating [12, 26]: 0
Ducksalad plant response rating [12, 27]: 0
Plant response rating, Ducksalad [12, 28]: 0
Wheat plant response rating [13, 18]: 0
Wheat plant response rating (0 to 10 scale) [13, 19]: 0
Wheat plant response rating [13, 20]: 0
Wheat plant response rating [13, 21]: 0
Plant response rating, Wheat [13, 23]: 0
Wheat plant response rating [13, 24]: 3
Barnyardgrass plant response rating [14, 25]: 0
Barnyardgrass plant response rating [14, 26]: 0
Barnyardgrass plant response rating [14, 27]: 0
Plant response rating, Barnyardgrass [14, 28]: 0
S. Flatsedge plant response rating [15, 25]: 0
S. Flatsedge plant response rating [15, 26]: 0
S. Flatsedge plant response rating [15, 27]: 0
S. Flatsedge plant response rating ([15]; Rate 500 g/ha, Pre-emergence, flood test species, scale 0 to 10 (0 no effect, 10 complete control)): 0
Wild oats plant response rating [16, 18]: 0
Wild oats plant response rating (0 to 10 scale) [16, 19]: 0
Wild oats plant response rating [16, 20]: 0
Wild oats plant response rating [16, 21]: 2
Plant response rating, Wild oats [16, 23]: 0
Wild oats plant response rating [16, 24]: 2
